Measured values: PMC6001782 (Chemistry (Weinheim an Der Bergstrasse, Germany), 2018)

Biological target: T1, BtGH99 (Bacteroides thetaiotaomicron, UniProt Q8A109)
T1 sequence (Q8A109 18-382): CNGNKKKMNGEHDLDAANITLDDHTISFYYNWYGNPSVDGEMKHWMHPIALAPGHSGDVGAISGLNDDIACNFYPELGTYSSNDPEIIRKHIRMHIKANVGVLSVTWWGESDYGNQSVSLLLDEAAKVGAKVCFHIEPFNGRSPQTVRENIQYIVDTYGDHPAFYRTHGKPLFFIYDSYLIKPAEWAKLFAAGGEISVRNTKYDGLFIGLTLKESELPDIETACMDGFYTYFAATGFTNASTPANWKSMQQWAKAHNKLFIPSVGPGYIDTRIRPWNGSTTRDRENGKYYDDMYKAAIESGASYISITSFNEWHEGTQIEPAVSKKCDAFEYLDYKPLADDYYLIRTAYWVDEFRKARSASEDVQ
Assay: isothermal titration calorimetry
Type: binding

N[C@@H]1CN[C@H](CO)[C@@H](O)[C@@H]1O[C@H]1O[C@H](CO)[C@@H](O)[C@H](O)[C@@H]1O [compound 1, α‐D‐Mannopyranosyl‐(1→3)‐2‐amino‐1,2,5‐trideoxy‐1,5‐imino‐D‐mannitol]
Kd: 97.7 ± 4.9 µM
